System: 282377-053-R-J1-PDC complex spheroid viability
Assay: Anticancer human tumor 282377-053-R-J1-PDC patient-derived colon adenocarcinoma cell line growth inhibition [RAS]
Details: for IC50: curve of first compound; for viability, T/C: stronger effect = lower value; active = viability on the fitted dose curve at most 10% of control; inactive = the rest
Text: RAS pathway inhibitors in Combinations in Complex Spheroids
A high-throughput screen of multi-cell type tumor spheroids was designed to identify active combinations of RAS pathway inhibitors and targeted small molecules. Complex spheroids include a stromal component modeled by human endothelial cells (HUVEC) and fibroblasts modeled by human mesenchymal stem cells (MSCs). The concentration ranges selected for each drug and investigational agent were based upon clinically achievable concentrations if the clinical Cmax of the agent was known.
Compounds. The drugs and investigational agents: abemaciclib (NSC768073), cobimetinib (NSC768068), divarasib (GDC6063, NSC841802), docetaxel (NSC628503), GDC-1971 (RLY-1971, NSC841576), gemcitabine (NSC613327), inavolisib (NSC800729), ipatasertib (NSC767898), KB-0742 (NSC834161), MRTX-1133 (NSC836407), osimertinib (NSC779217), RMC-4630 (NSC839698), RMC-6236 (NSC851965), RMC-6291 (NSC852671), Ro-3306 (NSC812927), sapanisertib (NSC764658), SN-38 (NSC673596), staurosporine (NSC755774), SY5609 (NSC837396), and tovorafenib (DAY101, NSC766906), were obtained from the National Cancer Institute (NCI) Developmental Therapeutics Program Chemical Repository. The FDA-approved anticancer drug set is available from the NCI Developmental Therapeutics Program. […] The stock solutions were prepared in dimethyl sulfoxide (DMSO, Sigma-Aldrich, St. Louis, MO, cat. D2650) at 800-fold the tested concentration and stored at -70 degrees C prior to their use. All drugs and investigational agents were tested over a range starting from a high concentration at or near the clinical Cmax and decreasing in half-log increments. If the clinical Cmax for an agent had not been determined, the highest concentration tested was 10 microM.
Cell Culture. All cells were maintained in an incubator at 37 degrees C and 5% CO2 with 95% humidity. The PDC lines were cultured according to standard operating procedures established by the NCI PDMR. All PDCs were thawed and cultured in Matrigel-coated flasks prepared with a working solution of 1X Ham's F-12 nutrient mix, without supplementation (Invitrogen, Waltham, MA, cat. 11765054), 100 U/mL penicillin-streptomycin (Invitrogen, cat. 15140122), and 2.5% Matrigel (Corning Inc., Corning, NY, cat. 354248) for the first three passages. The 362531-283-R-J2-PDC and 782815-120-R-J1-PDC lines were cultured in 6C/Colon 1B media, which includes advanced DMEM/F-12 (Thermo Fisher Scientific, cat. 12634028), 10 mM HEPES (Thermo Fisher Scientific, cat. 15630080), 1X GlutaMAX supplement (Thermo Fisher Scientific, cat. 35050061), 0.1 mg/mL primocin (InvivoGen, San Diego, CA, cat. ant-pm-2), 10% defined fetal bovine serum, heat inactivated (HyClone Laboratories Inc., Logan, UT, cat. SH30070.03HI), 50% L-WRN conditioned media (ATCC, cat. CRL-3276), 1.25 mM N-Acetyl-L-cysteine (Sigma-Aldrich, cat. A9165), 10 mM nicotinamide (Sigma-Aldrich, cat. N0636), 1X B-27 supplement (Thermo Fisher Scientific, cat. 17504044), 1X N-2 supplement (Thermo Fisher Scientific, cat. 17502048), 50 ng/mL human EGF (Thermo Fisher Scientific, cat. PHG0311), and 10 microM Y-27632 dihydrochloride (Tocris Bioscience, cat. 1254). The K12877-001-R-J1-PDC line was cultured in 6I media, which includes all 6C/Colon 1B media plus 10 ng/mL human FGF-10 (PeproTech, cat. 100-26), 1 ng/mL human FGF-2 (PeproTech, cat. 100-18B), 1 µM prostaglandin E2 (Tocris Bioscience, cat. 2296), […] hydrocortisone (Sigma-Aldrich, cat. H4001), and […] bovine insulin (Sigma-Aldrich, cat. I6634). The K86415-001-R-J1-PDC line was cultured in 6D media, which includes all 6C/Colon 1B media components minus the L-WRN conditioned media. The 485176-168-R4-J1-PDC was cultured in PANC media, which includes all 6C/Colon 1B media plus 100 ng/mL human FGF-10 (PeproTech, cat. 100-26), 500 nM SB-431542 (Selleckchem, cat. S1067), and 10 nM gastrin (Tocris Bioscience, cat. 3006). […]
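Also: spheroids exposed to agents for seven days before readout.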
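For viability, T/C in this document: luminescence viability as percent of DMSO vehicle control wells.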

CCN1CCN(Cc2ccc(Nc3ncc(F)c(-c4cc(F)c5nc(C)n(C(C)C)c5c4)n3)nc2)CC1 + CCn1c(-c2cc(N3CCN(C)CC3)cnc2C(C)OC)c2c3cc(ccc31)-c1csc(n1)CC(NC(=O)C1CC1C)C(=O)N1CCCC(N1)C(=O)OCC(C)(C)C2
> 1000 nM: IC50 (second compound 0.000949 µM) | IC50 (second compound 0.003 µM) | IC50 (second compound 0.00949 µM) | IC50 (second compound 0.03 µM) | IC50 (second compound 0.0949 µM) | IC50 (second compound 0.3 µM)
inactive: viability, T/C (second compound 0.000949 µM, first compound 0.00316 µM) 101% | viability, T/C (second compound 0.000949 µM, first compound 0.01 µM) 119% | viability, T/C (second compound 0.000949 µM, first compound 0.0316 µM) 98.1% | viability, T/C (second compound 0.000949 µM, first compound 0.1 µM) 120% | viability, T/C (second compound 0.000949 µM, first compound 0.316 µM) 188% | viability, T/C (second compound 0.000949 µM, first compound 1 µM) 180% | viability, T/C (second compound 0.003 µM, first compound 0.00316 µM) 102% | viability, T/C (second compound 0.003 µM, first compound 0.01 µM) 137% | viability, T/C (second compound 0.003 µM, first compound 0.0316 µM) 114% | viability, T/C (second compound 0.003 µM, first compound 0.1 µM) 90.1% | viability, T/C (second compound 0.003 µM, first compound 0.316 µM) 142% | viability, T/C (second compound 0.003 µM, first compound 1 µM) 170% | viability, T/C (second compound 0.00949 µM, first compound 0.00316 µM) 115% | viability, T/C (second compound 0.00949 µM, first compound 0.01 µM) 126% | viability, T/C (second compound 0.00949 µM, first compound 0.0316 µM) 96.2% | viability, T/C (second compound 0.00949 µM, first compound 0.1 µM) 105% | viability, T/C (second compound 0.00949 µM, first compound 0.316 µM) 108% | viability, T/C (second compound 0.00949 µM, first compound 1 µM) 194% | viability, T/C (second compound 0.03 µM, first compound 0.00316 µM) 90.4% | viability, T/C (second compound 0.03 µM, first compound 0.01 µM) 106% | viability, T/C (second compound 0.03 µM, first compound 0.0316 µM) 87.7% | viability, T/C (second compound 0.03 µM, first compound 0.1 µM) 105% | viability, T/C (second compound 0.03 µM, first compound 0.316 µM) 131% | viability, T/C (second compound 0.03 µM, first compound 1 µM) 212% | viability, T/C (second compound 0.0949 µM, first compound 0.00316 µM) 98.8% | viability, T/C (second compound 0.0949 µM, first compound 0.01 µM) 112% | viability, T/C (second compound 0.0949 µM, first compound 0.0316 µM) 89.8% | viability, T/C (second compound 0.0949 µM, first compound 0.1 µM) 123% | viability, T/C (second compound 0.0949 µM, first compound 0.316 µM) 146% | viability, T/C (second compound 0.0949 µM, first compound 1 µM) 246% | viability, T/C (second compound 0.3 µM, first compound 0.00316 µM) 102% | viability, T/C (second compound 0.3 µM, first compound 0.01 µM) 123% | viability, T/C (second compound 0.3 µM, first compound 0.0316 µM) 123% | viability, T/C (second compound 0.3 µM, first compound 0.1 µM) 119% | viability, T/C (second compound 0.3 µM, first compound 0.316 µM) 162% | viability, T/C (second compound 0.3 µM, first compound 1 µM) 227%

— PubChem BioAssay AID2060905 (Molecular Pharmacology Branch, DTP, NCI, 2025)
